The source of these data is patent US7304174B2, “CaSR antagonist” (Japan Tobacco Inc., priority 2003, dated 2007).

One data set concerns the target T1, human calcium receptor (Homo sapiens, UniProt P41180).
T1 construct: expressed in transfected cells; host or cells: cell strain derived from rat adrenal, co-transformed with luciferase cDNA
T1 sequence (P41180 20-1078): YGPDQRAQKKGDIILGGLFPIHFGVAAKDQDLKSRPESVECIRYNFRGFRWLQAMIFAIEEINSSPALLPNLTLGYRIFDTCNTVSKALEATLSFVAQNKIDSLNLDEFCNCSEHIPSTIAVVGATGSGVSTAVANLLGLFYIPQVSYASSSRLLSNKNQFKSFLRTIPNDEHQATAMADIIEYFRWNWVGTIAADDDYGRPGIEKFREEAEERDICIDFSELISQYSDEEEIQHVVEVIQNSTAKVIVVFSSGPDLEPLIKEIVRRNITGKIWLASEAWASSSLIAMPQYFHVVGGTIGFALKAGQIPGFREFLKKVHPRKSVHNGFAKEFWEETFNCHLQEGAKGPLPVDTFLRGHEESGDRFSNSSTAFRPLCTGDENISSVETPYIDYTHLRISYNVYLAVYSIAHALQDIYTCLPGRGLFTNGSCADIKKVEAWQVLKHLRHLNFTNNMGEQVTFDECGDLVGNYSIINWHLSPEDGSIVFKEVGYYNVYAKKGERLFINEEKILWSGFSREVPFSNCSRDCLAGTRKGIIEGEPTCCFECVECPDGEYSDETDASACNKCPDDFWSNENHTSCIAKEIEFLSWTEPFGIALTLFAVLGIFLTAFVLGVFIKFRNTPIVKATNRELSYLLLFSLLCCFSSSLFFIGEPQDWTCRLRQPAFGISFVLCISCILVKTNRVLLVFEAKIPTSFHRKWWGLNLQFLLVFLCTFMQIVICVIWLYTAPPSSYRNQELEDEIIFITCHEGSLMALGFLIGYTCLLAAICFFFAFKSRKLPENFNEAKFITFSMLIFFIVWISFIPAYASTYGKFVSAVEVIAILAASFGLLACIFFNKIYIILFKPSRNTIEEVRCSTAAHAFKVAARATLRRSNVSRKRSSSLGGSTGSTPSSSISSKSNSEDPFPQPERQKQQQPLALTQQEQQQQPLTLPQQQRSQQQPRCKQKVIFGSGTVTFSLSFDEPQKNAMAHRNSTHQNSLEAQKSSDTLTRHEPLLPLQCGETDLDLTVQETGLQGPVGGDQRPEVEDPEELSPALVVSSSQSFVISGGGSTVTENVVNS
In words: Evaluation of antagonistic action on calcium receptor using reporter gene (luciferase). It counts as cell-based. As to conditions: transformed rat adrenal derived cells, 5 mM calcium chloride, culture 4 hrs, luciferase activity; read-out: Reporter gene assay (IC50, concentration showing 50% inhibitory rate). The essentials: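 Rat adrenal-derived cells transfected with luciferase and human calcium receptor cDNA, in F12 with 0.5% dialyzed horse serum and 0.25% dialyzed fetal bovine serum. Luciferase luminescence gave % inhibition vs control and blank; IC50 at 50% inhibition.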

A further data set has as its target T2, CYP2D6 (Homo sapiens, UniProt P10635).
T2 construct: purchased BD Bioscience
In words: Metabolic enzyme CYP2D6 inhibitory activity (inhibition measurement kit). Format: in vitro ADME. As to conditions: enzyme activity free of test compound as 100%, >10 means over 10 μM. On the procedure: Using a metabolic enzyme CYP2D6 inhibition measurement kit (BD Bioscience) and following the manual of the kit, the inhibitory activity of the test compound was measured. With the enzyme activity free of the test compound as 100%, the concentration (IC50) showing 50% inhibition was determined. The results are shown in Table 63 and Table 64, wherein “>10” means over 10 μM.

For another data set, the system named is PTH release. As to conditions: OVX rat, cited from earlier work.

T2 sequence (P10635 whole entry): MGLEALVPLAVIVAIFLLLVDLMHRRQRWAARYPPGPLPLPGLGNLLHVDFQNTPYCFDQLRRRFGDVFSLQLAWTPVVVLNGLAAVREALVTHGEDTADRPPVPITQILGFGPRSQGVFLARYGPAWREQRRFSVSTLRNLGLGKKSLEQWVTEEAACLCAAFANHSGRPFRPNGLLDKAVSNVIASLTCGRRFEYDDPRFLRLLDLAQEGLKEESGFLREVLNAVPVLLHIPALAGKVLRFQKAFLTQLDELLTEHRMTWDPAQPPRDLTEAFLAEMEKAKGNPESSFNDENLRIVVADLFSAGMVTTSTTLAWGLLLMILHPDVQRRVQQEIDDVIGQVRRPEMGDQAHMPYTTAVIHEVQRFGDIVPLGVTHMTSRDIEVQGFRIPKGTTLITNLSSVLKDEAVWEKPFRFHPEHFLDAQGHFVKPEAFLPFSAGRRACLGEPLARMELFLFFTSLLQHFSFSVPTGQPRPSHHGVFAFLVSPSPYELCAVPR

As to `CC(OC[C@H](O)CNC(C)(C)Cc1ccc2ccccc2c1)c1ccccc1OCc1ccccc1C(=O)O` (stereo partly drawn) [2-20′], the IC50 at human calcium receptor is 21 nM; against CYP2D6, above 10000 nM.

On to `COc1cc(-c2ccccc2[C@@H](C)OC[C@H](O)CNC(C)(C)Cc2ccc3ccccc3c2)ccc1C(=O)O` [Example 1-26, 2′-[1-[(2R)-3-[[1-(naphthalen-2-yl)-2-methylpropan-2-yl]amino]-2-hydroxypropoxy]ethyl]-3-methoxybiphenyl-4-carboxylic acid], for which the IC50 on human calcium receptor was 14 nM; against CYP2D6, above 10000 nM.

In the case of `COc1cc(C(=O)O)ccc1-c1ccccc1[C@@H](C)OC[C@H](O)CNC(C)(C)Cc1ccc2ccccc2c1` [Example 1-27, 2′-[1-[(2R)-3-[[1-(naphthalen-2-yl)-2-methylpropan-2-yl]amino]-2-hydroxypropoxy]ethyl]-2-methoxybiphenyl-4-carboxylic acid], the IC50 on human calcium receptor was 14 nM; on CYP2D6, above 10000 nM.

Turning to `CC(C)c1cc(-c2ccccc2[C@@H](C)OC[C@H](O)CNC(C)(C)Cc2ccc3ccccc3c2)ccc1C(=O)O` [Example 1-32, 2′-[1-[(2R)-3-[[1-(naphthalen-2-yl)-2-methylpropan-2-yl]amino]-2-hydroxypropoxy]ethyl]-3-isopropylbiphenyl-4-carboxylic acid], the IC50 is 2 nM on human calcium receptor and 10000 nM against CYP2D6 (human, CYP2D6 inhibition measurement kit (BD Bioscience)).

With `CCc1cc(-c2ccccc2[C@@H](C)OC[C@H](O)CNC(C)(C)Cc2ccc(C)c(F)c2)ccc1C(=O)O` [Example 1-33, 3-ethyl-2′-[1-[(2R)-3-[[1-(3-fluoro-4-methylphenyl)-2-methylpropan-2-yl]amino]-2-hydroxypropoxy]ethyl]biphenyl-4-carboxylic acid], the values for the IC50 at human calcium receptor and against CYP2D6 were 5 nM and above 10000 nM, respectively.

As for `Cc1ccc(CC(C)(C)NC[C@@H](O)CO[C@H](C)c2ccccc2-c2ccc(C(=O)O)c(C(C)C)c2)cc1F` [Example 1-34, 2′-[1-[(2R)-3-[[1-(3-fluoro-4-methylphenyl)-2-methylpropan-2-yl]amino]-2-hydroxypropoxy]ethyl]-3-isopropylbiphenyl-4-carboxylic acid], the IC50 was 5 nM on human calcium receptor and above 10000 nM against CYP2D6.

With `C[C@@H](OC[C@H](O)CNC(C)(C)Cc1ccc2ccccc2c1)c1ccccc1-c1ccc(C(=O)O)c(Cl)n1` [Example 1-35, 2-chloro-6-[2-[1-[(2R)-3-[[1-(naphthalen-2-yl)-2-methylpropan-2-yl]amino]-2-hydroxypropoxy]ethyl]phenyl]pyridine-3-carboxylic acid], the IC50 on human calcium receptor is 10 nM; against CYP2D6, above 10000 nM.

Turning to `Cc1ccc(CC(C)(C)NC[C@@H](O)CO[C@H](C)c2ccccc2-c2ccc(C(=O)O)c(Cl)n2)cc1F` [Example 1-39, 2-chloro-6-[2-[1-[(2R)-3-[[1-(3-fluoro-4-methylphenyl)-2-methylpropan-2-yl]amino]-2-hydroxypropoxy]ethyl]phenyl]pyridine-3-carboxylic acid], the values for the IC50 at human calcium receptor and on CYP2D6 were 12 nM and above 10000 nM, respectively.

Consider `CC(C)=Cc1cc(-c2ccccc2[C@@H](C)OC[C@H](O)CNC(C)(C)Cc2ccc(C)c(F)c2)ccc1C(=O)O` [Example 1-48, 2′-[1-[(2R)-3-[[1-(3-fluoro-4-methylphenyl)-2-methylpropan-2-yl]amino]-2-hydroxypropoxy]ethyl]-3-(2-methyl-1-propenyl)biphenyl-4-carboxylic acid], for which the IC50 at human calcium receptor was 2 nM; at CYP2D6 it was above 10000 nM.

On to `Cc1cc(C(=O)O)ccc1-c1ccccc1[C@@H](C)OC[C@H](O)CNC(C)(C)Cc1ccc(Cl)c(Cl)c1` [Example 1-57, 2′-[1-[(2R)-3-[[1-(3,4-dichlorophenyl)-2-methylpropan-2-yl]amino]-2-hydroxypropoxy]ethyl]-2-methylbiphenyl-4-carboxylic acid], for which the IC50 was 27 nM on human calcium receptor and above 10000 nM against CYP2D6.

As for `C[C@@H](OC[C@H](O)CNC(C)(C)Cc1ccc2ccccc2c1)c1ccccc1-c1ccc(C(=O)O)c(F)c1` [Example 1-59, 3-fluoro-2′-[1-[(2R)-3-[[1-(naphthalen-2-yl)-2-methylpropan-2-yl]amino]-2-hydroxypropoxy]ethyl]biphenyl-4-carboxylic acid], the IC50 is 16 nM at human calcium receptor and above 10000 nM against CYP2D6.

On to `COc1cc(CC(C)(C)NC[C@@H](O)CO[C@H](C)c2ccccc2-c2ccc(C(=O)O)c(C)c2)ccc1C` [Example 1-73, 2′-[1-[(2R)-3-[[1-(3-methoxy-4-methylphenyl)-2-methylpropan-2-yl]amino]-2-hydroxypropoxy]ethyl]-3-methylbiphenyl-4-carboxylic acid], for which the IC50 at human calcium receptor was 7 nM; against CYP2D6 it was above 10000 nM.

As for `COc1cc(-c2ccccc2[C@@H](C)OC[C@H](O)CNC(C)(C)Cc2ccc(C)c(F)c2)ccc1C(=O)O` [Example 1-80, 2′-[1-[(2R)-3-[[1-(3-fluoro-4-methylphenyl)-2-methylpropan-2-yl]amino]-2-hydroxypropoxy]ethyl]-3-methoxybiphenyl-4-carboxylic acid], the figures for the IC50 at human calcium receptor and at CYP2D6 were 27 nM and above 10000 nM, respectively.

Consider `CC(OC[C@H](O)CNC(C)(C)Cc1cnc2ccccc2c1)c1ccccc1Oc1ccc(C(=O)O)cc1` (stereo partly drawn) [Example 2-5, 4-[2-[1-[(2R)-3-[[1-(quinolin-3-yl)-2-methylpropan-2-yl]amino]-2-hydroxypropoxy]ethyl]phenoxy]benzoic acid], for which the IC50 on human calcium receptor is 57 nM; against CYP2D6, above 10000 nM.

As for “rat PTH (1-34): rat parathyroid hormone fragment (1-34) administered to OVX rat (AVSEIQLMHNLGKHLASVERMQWLRKKLQDVHNF; Parathyroid hormone; UniProt P04089 32-65, looked up, fragment)”, the “Time until blood PTH returned to the original level” value with PTH release (5 μg/kg) is 2 h. Moreover, in the data set with PTH release (rat PTH (1-34) 5 μg/kg, NPS-2143 100 μmol/kg), the “Blood PTH concentration in 30 minutes” value is “about 175 pg/ml”.
